Data from ChEMBL document CHEMBL1201862, “PubChem BioAssay data set” (2004).
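Results reflect a 48-hour exposure of cells in 96-well plates to compound at five concentrations. GI50 = concentration required for 50% inhibition of growth.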 Calls of active or inactive are those of the source. Cut-off read from the data, not from the text of the source: active = GI50 up to about 1.1 µM and inactive = higher. Residues, ends and D or L forms follow the SMILES beside them. Groups on a side chain read outwards from the residue. *: point of attachment. Cbz = O=C(OCc1ccccc1)*; Boc = CC(C)(C)OC(=O)*

Legend:
Test in all cases: growth of human tumour cells (NCI), 48 h
[1] = test system: NCI/ADR-RES
[2] = test system: MDA-MB-231
[3] = test system: SR
[4] = test system: MCF7
[5] = test system: OVCAR-5
[6] = test system: UACC-62
[7] = test system: SNB-19
[8] = test system: M14
[9] = test system: HCT-15
[10] = test system: NCI-H522
[11] = test system: IGROV-1
[12] = test system: SF-268
[13] = test system: NCI-H460
[14] = test system: SK-MEL-5
[15] = test system: HOP-92
[16] = test system: COLO 205
[17] = test system: SK-MEL-2
[18] = test system: PC-3
[19] = test system: LOX IMVI
[20] = test system: EKVX
[21] = test system: A549
[22] = test system: SW-620
[23] = test system: OVCAR-3
[24] = test system: NCI-H226
[25] = test system: UO-31
[26] = test system: SK-OV-3
[27] = test system: ACHN
[28] = test system: SN12C
[29] = test system: HT-29
[30] = test system: Malme-3M
[31] = test system: BT-549
[32] = test system: OVCAR-8
[33] = test system: SF-295
[34] = test system: T47D
[35] = test system: MOLT-4
[36] = test system: HOP-62
[37] = test system: SNB-75
[38] = test system: Hs-578T
[39] = test system: UACC-257
[40] = test system: OVCAR-4
[41] = test system: HCT-116
[42] = test system: K562
[43] = test system: MDA-N
[44] = test system: TK-10
[45] = test system: SK-MEL-28
[46] = test system: U-251
[47] = test system: RPMI-8226
[48] = test system: CAKI-1
[49] = test system: CCRF-CEM
[50] = test system: NCI-H23
[51] = test system: MDA-MB-435
[52] = test system: DU-145
[53] = test system: 786-0
[54] = test system: HCC 2998
[55] = test system: HL-60
[56] = test system: SF-539

Measured: GI50

O=S(=O)(O)Oc1cc2c(c(OS(=O)(=O)O)c1)C[C@H](OS(=O)(=O)O)[C@@H](c1ccc(OS(=O)(=O)O)c(OS(=O)(=O)O)c1)O2
> 100 µM: [9]
inactive: [1] > 100 µM | [2] 85.7 µM | [3] > 100 µM | [4] > 100 µM | [5] > 100 µM | [6] > 100 µM | [7] > 100 µM | [8] > 100 µM | [10] > 100 µM | [11] > 100 µM | [12] > 100 µM | [13] > 100 µM | [14] > 100 µM | [15] > 100 µM | [16] > 100 µM | [17] > 100 µM | [18] > 100 µM | [19] > 100 µM | [20] > 100 µM | [21] > 100 µM | [22] > 100 µM | [23] > 100 µM | [24] > 100 µM | [25] > 100 µM | [26] > 100 µM | [27] > 100 µM | [28] > 100 µM | [29] > 100 µM | [30] > 100 µM | [31] > 100 µM | [32] > 100 µM | [33] > 100 µM | [34] > 100 µM | [35] > 100 µM | [36] > 100 µM | [37] 43.6 µM | [38] > 100 µM | [39] > 100 µM | [40] > 100 µM

CC(C)(C)OC(=O)NC(CCCCNC(=O)CNC(=O)OCc1ccccc1)C(=O)NC(CCCCNC(=O)CNC(=O)OCc1ccccc1)C(=O)NC(CCCCNC(=O)CNC(=O)OCc1ccccc1)C(=O)NC(CCCCNC(=O)CNC(=O)OCc1ccccc1)C(=O)O (stereo unspecified) (Boc-K([Gly-Cbz])K([Gly-Cbz])K([Gly-Cbz])K([Gly-Cbz])-OH; configuration not given here)
inactive: [41] > 100 µM | [2] > 100 µM | [3] > 100 µM | [42] > 100 µM | [4] > 100 µM | [5] > 100 µM | [6] > 100 µM | [7] > 100 µM | [8] > 100 µM | [10] > 100 µM | [11] > 100 µM | [12] > 100 µM | [13] > 100 µM | [14] > 100 µM | [43] > 100 µM | [44] > 100 µM | [17] > 100 µM | [18] > 100 µM | [19] > 100 µM | [45] > 100 µM | [21] > 100 µM | [46] > 100 µM | [22] > 100 µM | [23] > 100 µM | [24] > 100 µM | [47] > 100 µM | [48] > 100 µM | [49] > 100 µM | [25] > 100 µM | [50] > 100 µM | [27] > 100 µM | [28] > 100 µM | [29] > 100 µM | [30] > 100 µM | [31] > 100 µM | [32] > 100 µM | [51] > 10 µM | [34] > 100 µM | [52] > 100 µM | [35] > 100 µM | [36] > 100 µM | [37] > 100 µM | [53] > 100 µM | [54] > 100 µM | [39] > 100 µM | [55] > 100 µM | [40] > 10 µM
> 100 µM: [9]

Cn1c2nc3ccccc3c-2cc2ccccc21 [NEOCRYPTOLEPINE]
inactive: [3] 2.2 µM | [42] 3.41 µM | [4] 2.74 µM | [11] 2.7 µM | [13] 2.38 µM | [16] 2.93 µM | [18] 3.3 µM | [19] 3.27 µM | [20] 2.28 µM | [22] 3.68 µM | [23] 5.18 µM | [49] 3.15 µM | [26] 6.47 µM | [29] 2.51 µM | [56] 3.05 µM | [31] 3.19 µM | [33] 4.59 µM | [51] 4.2 µM | [34] 4.81 µM | [52] 6.82 µM | [53] 3.84 µM | [54] 2.48 µM | [55] 2.38 µM
